According to patent publication US20090143441A1, “Combination therapies of Thiazolidinedione analogues” (priority 2006, published 2009):
Entries after “also recorded” stand apart in the source; their conditions may differ.

Columns and labels:
PPARγ = target: T1, PPARγ (Homo sapiens, UniProt P37231); assay: Commercial PPARγ binding assay (Invitrogen, PPAR-LBD/Fluormone PPAR Green complex); conditions: for PPARγ ligand binding (Fluormone displacement signal) / Activation of PPARγ: average (SEM) of three experiments in quadruplicate; for Binding to PPARγ (in words): summary of FIG. 1 and Table B
T1 construct: purchased Invitrogen Corporation, Carlsbad, Calif
T1 sequence (P37231 238-503 limits assumed): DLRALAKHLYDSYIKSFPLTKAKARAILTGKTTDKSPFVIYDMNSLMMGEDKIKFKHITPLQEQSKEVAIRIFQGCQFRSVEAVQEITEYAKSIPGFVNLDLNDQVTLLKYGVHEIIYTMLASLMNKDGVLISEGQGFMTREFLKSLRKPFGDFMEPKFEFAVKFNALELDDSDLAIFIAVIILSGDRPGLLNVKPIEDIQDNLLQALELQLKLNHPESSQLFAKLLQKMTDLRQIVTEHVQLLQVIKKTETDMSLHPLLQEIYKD
Method: The ability of several exemplary compounds of the present invention, shown in Table A, to bind to PPARγ was measured using a commercial binding assay (Invitrogen Corporation, Carlsbad, Calif.) that measures the test compounds ability to bind with PPAR-LBD/Fluormone PPAR Green complex. These assays were performed on three occasions with each assay using four separate wells (quadruplicate) at each concentration of tested compound. The data in Table B are average and SEM of three experiments, each of which were performed in quadruplicate on separate days. […] Compounds were added at the concentrations shown, which range from 0.1-100 micromolar.

[1] = system: normal male Sprague-Dawley rats with Medrol-induced hypertension; assay: Prevention of Medrol-induced hypertension, mean blood pressure by direct femoral arterial cannulation; format: in vivo; conditions: for Mean blood pressure, Fasted: after a 6 hour fast on day 8; for Mean blood pressure, Fasted / Mean blood pressure, Fed: daily dosing, Compound 1 40 mg/kg/day, Medrol 20 mg/kg/day, N=9, * p<0.05 less than Medrol-treated rats; for Mean blood pressure, Fed: fed conditions on day 7
Method: Hypertension was induced in normal male Sprague-Dawley rats by daily dosing with the glucocorticoid methylprednisolone (Medrol) for 8 days. Separate groups of rats received the vehicle (1% carboxymethylcellulose/0.01% Tween 20) by oral gavage and some of both the vehicle-treated and Medrol-treated rats also received daily doses of compound 1 as shown in Table C. Mean blood pressure was measured by direct femoral arterial cannulation under fed conditions on day 7 and after a 6 hour fast on day 8. The data are mean and (SEM) mean blood pressure obtained by direct cannulation. N=9; * p<0.05 less than blood pressure in Medrol-treated rats.

Compound | PPARγ ligand binding (Fluormone displacement signal) (PPARγ; compound at 1 μM) | Activation of PPARγ (PPARγ; compound at 3 μM) | PPARγ ligand binding (Fluormone displacement signal) (PPARγ; compound at 10 μM) | PPARγ ligand binding (Fluormone displacement signal) (PPARγ; compound at 50 μM) | PPARγ ligand binding (Fluormone displacement signal) (PPARγ; compound at 100 μM) | PPARγ ligand binding (Fluormone displacement signal) (PPARγ; compound at .1 μM) | PPARγ ligand binding (Fluormone displacement signal) (PPARγ; compound at .3 μM) | Activation of PPARγ (PPARγ; compound at 10 μM) | Activation of PPARγ (PPARγ; compound at 50 μM) | Activation of PPARγ (PPARγ; compound at .1 μM) | Activation of PPARγ (PPARγ; compound at 100 μM) | PPARγ ligand binding (Fluormone displacement signal) (PPARγ; compound at 3 μM) | Activation of PPARγ (PPARγ; compound at 1 μM) | Activation of PPARγ (PPARγ; compound at .3 μM) | Binding to PPARγ (in words) (PPARγ) | Mean blood pressure, Fasted [1] | Mean blood pressure, Fed [1] | Antihypertensive action (in words) ([1]; hypertension generated by treatment with a glucocorticoid, FIG. 2 and Table C)
CCc1ccc([C@@H](O)COc2ccc(CC3SC(=O)NC3=O)cc2)nc1 (some centres unmarked) [Compound 2] | 238 (12) | 236 (13) | 223 (11) | 162 (8) | 136 (11) | 231 (15) | 233 (15) | – | – | – | – | – | – | – | particularly poor binders to PPARγ; also recorded: PPARγ-sparing compound | – | – | –
C[C@H]1C[C@@H]2[C@H]([C@@H](O)C[C@@]3(C)[C@H]2CC[C@]3(O)C(=O)CO)[C@@]2(C)C=CC(=O)C=C12 [Medrol, methylprednisolone, reference compound] | – | – | – | – | – | – | – | – | – | – | – | – | – | – | – | 122 | 123 | –
CCc1ccc(CCOc2ccc(CC3(C)SC(=O)NC3=O)cc2)nc1 (centres unmarked) [Compound 6] | 233 (11) | – | 198 (10) | – | 99 (12) | 246 (7) | 246 (9) | – | 126 (17) | – | – | 223 (7) | – | – | – | – | – | –
CCc1ccc(CCOc2ccc(CC3(C)SC(=O)NC3=O)cc2)nc1 (centres unmarked) [Compound 7] | – | – | 210 (9) | 144 (15) | 105 (10) | 249 (9) | – | – | – | – | – | 237 (7) | 248 (13) | 246 (5) | – | – | – | –
CCc1ccc(CCOc2ccc(CC3(C)SC(=O)NC3=O)cc2)nc1 (centres unmarked) [Compound 4] | 234 (11) | – | 200 (8) | – | 91 (11) | – | – | – | 122 (21) | 236 (13) | – | 224 (15) | – | 230 (14) | – | – | – | –
CCc1ccc(C(O)COc2ccc(CC3(C)SC(=O)NC3=O)cc2)nc1 (centres unmarked) [Compound 5] | 228 (9) | – | 212 (11) | 132 (12) | 106 (7) | 235 (8) | 230 (10) | – | – | – | – | 226 (8) | – | – | – | – | – | –
CCc1ccc(C(=O)COc2ccc(CC3(C)SC(=O)NC3=O)cc2)nc1 (centres unmarked) [Compound 10] | – | – | – | 126 (3) | 93 (3) | – | – | 219 (5) | – | 245 (2) | – | 234 (3) | 240 (2) | 239 (2) | – | – | – | –
CCc1ccc([C@@H](O)COc2ccc(CC3(C)SC(=O)NC3=O)cc2)nc1 (some centres unmarked) [Compound 8] | – | – | 233 (7) | 199 (15) | – | – | – | – | – | 237 (6) | 186 (16) | 241 (10) | 239 (5) | 243 (5) | – | – | – | –
CCc1ccc([C@H](O)COc2ccc(CC3(C)SC(=O)NC3=O)cc2)nc1 (some centres unmarked) [Compound 9] | – | – | 234 (12) | – | – | – | – | – | 189 (19) | 237 (5) | 164 (20) | 233 (9) | 239 (13) | 237 (4) | – | – | – | –

Continued, in another order:

PPARγ ligand binding (Fluormone displacement signal) (PPARγ; compound at 1 μM) | Activation of PPARγ (PPARγ; compound at 3 μM) | PPARγ ligand binding (Fluormone displacement signal) (PPARγ; compound at 10 μM) | PPARγ ligand binding (Fluormone displacement signal) (PPARγ; compound at 50 μM) | PPARγ ligand binding (Fluormone displacement signal) (PPARγ; compound at 100 μM) | PPARγ ligand binding (Fluormone displacement signal) (PPARγ; compound at .1 μM) | PPARγ ligand binding (Fluormone displacement signal) (PPARγ; compound at .3 μM) | Activation of PPARγ (PPARγ; compound at 10 μM) | Activation of PPARγ (PPARγ; compound at 50 μM) | Activation of PPARγ (PPARγ; compound at .1 μM) | Activation of PPARγ (PPARγ; compound at 100 μM) | PPARγ ligand binding (Fluormone displacement signal) (PPARγ; compound at 3 μM) | Activation of PPARγ (PPARγ; compound at 1 μM) | Activation of PPARγ (PPARγ; compound at .3 μM) | Compound | Binding to PPARγ (in words) (PPARγ) | Mean blood pressure, Fasted [1] | Mean blood pressure, Fed [1] | Antihypertensive action (in words) ([1]; hypertension generated by treatment with a glucocorticoid, FIG. 2 and Table C)
203 (15) | 185 (17) | – | – | 77 (7) | – | 221 (10) | 134 (1) | 88 (6) | 226 (17) | – | – | – | – | CCc1ccc(C(=CC(=O)OC)COc2ccc(CC3SC(=O)NC3=O)cc2)nc1 (centres unmarked) [Compound 3] | – | – | – | –
223 (12) | 228 (6) | – | – | – | – | 232 (8) | 207 (13) | 174 (28) | 227 (1) | 170 (35) | – | – | – | CCc1ccc(C(=O)COc2ccc(CC3SC(=O)NC3=O)cc2)nc1 (centres unmarked) [Compound 1] | particularly poor binders to PPARγ | 108 | 108 | unexpected antihypertensive action; also recorded: significantly lowered blood pressure
232 (12) | – | 165 (10) | – | 78 (3) | 230 (12) | 227 (9) | – | 128 (30) | – | – | 229 (10) | – | – | CCc1ccc(C(=CC(=O)OC)COc2ccc(CC3SC(=O)NC3=O)cc2)nc1 (centres unmarked) [Compound 11] | – | – | – | –
– | – | 112 (12) | – | 85 (3) | 243 (3) | – | – | 80 (2) | – | – | 155 (8) | 198 (6) | 222 (4) | CCc1ccc(C(COc2ccc(CC3SC(=O)NC3=O)cc2)CC(=O)OC)nc1 (centres unmarked) [Compound 12] | – | – | – | –
– | 230 (13) | 204 (12) | – | – | 244 (9) | 243 (10) | – | 148 (23) | – | 108 (5) | – | 229 (20) | – | CCc1ccc(C(=CCO)COc2ccc(CC3SC(=O)NC3=O)cc2)nc1 (centres unmarked) [Compound 13] | – | – | – | –
